Assay results: patent publication US20040171086A1, “Selective modulation of TLR-mediated biological activity” (3M Innovative Properties Company, priority 2003, published 2004)

Key:
TLR6 = target: T1, TLR6 (Homo sapiens, UniProt Q9Y2C9); test: IFN-α1-luciferase reporter assay in genetically modified Namalwa cells, TLR6; format: cell-based; settings: 10 μM IRM, 18 hours
T1 construct: expressed in transfected cells; host or cells: Namalwa (ATCC CRL-1432), pCI-TLR6 vector, G418 selected
T1 sequence (Q9Y2C9 32-796): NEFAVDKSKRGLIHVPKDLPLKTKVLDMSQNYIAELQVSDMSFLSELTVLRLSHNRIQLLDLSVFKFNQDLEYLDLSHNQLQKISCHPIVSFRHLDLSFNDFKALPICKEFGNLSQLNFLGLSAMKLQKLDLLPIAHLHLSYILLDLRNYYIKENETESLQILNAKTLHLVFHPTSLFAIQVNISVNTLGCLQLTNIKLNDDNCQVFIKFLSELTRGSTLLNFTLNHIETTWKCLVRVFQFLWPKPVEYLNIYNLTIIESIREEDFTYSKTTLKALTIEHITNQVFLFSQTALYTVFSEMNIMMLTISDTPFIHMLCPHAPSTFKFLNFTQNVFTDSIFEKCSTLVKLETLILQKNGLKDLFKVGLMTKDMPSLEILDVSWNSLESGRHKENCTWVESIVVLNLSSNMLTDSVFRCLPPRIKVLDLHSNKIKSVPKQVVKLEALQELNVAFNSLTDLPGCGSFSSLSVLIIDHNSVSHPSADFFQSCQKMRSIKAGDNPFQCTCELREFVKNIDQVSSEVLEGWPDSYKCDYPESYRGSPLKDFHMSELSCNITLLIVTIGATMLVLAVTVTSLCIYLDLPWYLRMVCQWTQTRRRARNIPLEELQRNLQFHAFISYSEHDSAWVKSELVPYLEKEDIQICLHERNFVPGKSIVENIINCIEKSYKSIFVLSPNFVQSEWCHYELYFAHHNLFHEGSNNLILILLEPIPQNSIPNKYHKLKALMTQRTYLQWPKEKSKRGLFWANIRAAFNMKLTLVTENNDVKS
Description: (§1) Results are shown in Table 6 and are expressed as fold induction of IFN-α1 —induced luciferase signal, again with respect to a vehicle control.
(§2) The assay identified TLR6-selective compounds (i.e., compounds that modulate TLR6-mediated activity, but not TLR7-mediated activity), TLR7-selective compounds (compounds that modulate TLR7-mediated activity, but not TLR6-mediated activity), and compounds that modulate cellular activity through both TLR6 and TLR7.
(§3) Unless otherwise indicated, all incubations were performed at 37° C. with 5% CO2 at 98% humidity.
(§4) Culture medium was prepared from complete RPMI 1640 medium (BioSource International, Inc., Camarillo, Calif.). Fetal bovine serum (Atlas Biologicals, Inc., Ft. Collins, Colo.) was added to a final concentration of 7.5% (vol/vol); L-glutamine (BioSource International, Inc.) was added to 5 mM; and sodium pyruvate (BioSource International, Inc.) was added to 1 mM.
Namalwa cells were grown by incubation in culture medium overnight. Cells were harvested by centrifugation in a tabletop centrifuge (1200 RPM for 5 minutes), and then resuspended in phosphate buffered sucrose to a concentration of 1.3×10^7 cells/mL.
For each transfection, a 750 μL aliquot of the cell suspension was placed in an electroporation cuvette with 4 mm gaps. 10 μg of the pIFN-α1-luc vector and 10 μg of the pCI-TLR6 vector were added to the electroporation cuvette. The cell and vector mixtures were incubated at room temperature for 5 minutes. The cells were electroporated using a BioRad Gene Pulser (BioRad Laboratories, Hercules, Calif.) set to at 500 μF capacitance and […], then incubated at room temperature for 5 minutes.
(§5) The electroporated cells were suspended in 10 mLs of culture medium and incubated overnight. Dead cells and debris were removed after 24 hours using a MACS Dead Cell Removal kit (Miltenyi Biotec, Auburn, Calif.). Cells were resuspended in 10 mL of culture medium and incubated for an additional 24 hours.
(§6) Transfected cells were selected by adding G418 (Promega Corp., Madison, Wis.) to a final concentration of 1 mg/mL and incubating the cells for seven days.
(§7) The selected transfected cells were counted and resuspended to a concentration of 1×10^6 cell per mL in culture medium. 100 μl aliquots of cells were placed in the wells of a white-walled, white-bottomed 96-well plate (Corning, Inc., Corning, N.Y.). 1.0 μL of an IRM compound from Table 1 (prepared at 1 mM in 100% DMSO) was added to some cell aliquots so that the final concentration of IRM compound was 10 μM. As a positive control, some cell aliquots were incubated with Sendai virus instead of IRM compound. As a negative control, some cell aliquots were incubated with DMSO without IRM compound. In all cases, the cells were incubated for 18 hours.
(§8) The plates were equilibrated to room temperature before one volume of reconstituted LucLight Plus (Packard Instruments, Meriden, Conn.) was added to each aliquot of cells. Each well of the plate was read on an LJL Analyst (LJL Biosystems, Inc., Sunnyvale, Calif.) set with a 5 minute dark adapt. Results are shown in Table 6 and are expressed as fold increase of the IFN-αl—induced luciferase signal compared to a DMSO control.

TLR7 = target: T2, TLR7 (Homo sapiens, UniProt Q9NYK1); test: IFN-α1-luciferase reporter assay in genetically modified Namalwa cells, TLR7; format: cell-based; parameters: expressed in transfected cells; host or cells: Namalwa (ATCC CRL-1432); settings: 10 μM IRM, 18 hours
T2 sequence (Q9NYK1 27-1049): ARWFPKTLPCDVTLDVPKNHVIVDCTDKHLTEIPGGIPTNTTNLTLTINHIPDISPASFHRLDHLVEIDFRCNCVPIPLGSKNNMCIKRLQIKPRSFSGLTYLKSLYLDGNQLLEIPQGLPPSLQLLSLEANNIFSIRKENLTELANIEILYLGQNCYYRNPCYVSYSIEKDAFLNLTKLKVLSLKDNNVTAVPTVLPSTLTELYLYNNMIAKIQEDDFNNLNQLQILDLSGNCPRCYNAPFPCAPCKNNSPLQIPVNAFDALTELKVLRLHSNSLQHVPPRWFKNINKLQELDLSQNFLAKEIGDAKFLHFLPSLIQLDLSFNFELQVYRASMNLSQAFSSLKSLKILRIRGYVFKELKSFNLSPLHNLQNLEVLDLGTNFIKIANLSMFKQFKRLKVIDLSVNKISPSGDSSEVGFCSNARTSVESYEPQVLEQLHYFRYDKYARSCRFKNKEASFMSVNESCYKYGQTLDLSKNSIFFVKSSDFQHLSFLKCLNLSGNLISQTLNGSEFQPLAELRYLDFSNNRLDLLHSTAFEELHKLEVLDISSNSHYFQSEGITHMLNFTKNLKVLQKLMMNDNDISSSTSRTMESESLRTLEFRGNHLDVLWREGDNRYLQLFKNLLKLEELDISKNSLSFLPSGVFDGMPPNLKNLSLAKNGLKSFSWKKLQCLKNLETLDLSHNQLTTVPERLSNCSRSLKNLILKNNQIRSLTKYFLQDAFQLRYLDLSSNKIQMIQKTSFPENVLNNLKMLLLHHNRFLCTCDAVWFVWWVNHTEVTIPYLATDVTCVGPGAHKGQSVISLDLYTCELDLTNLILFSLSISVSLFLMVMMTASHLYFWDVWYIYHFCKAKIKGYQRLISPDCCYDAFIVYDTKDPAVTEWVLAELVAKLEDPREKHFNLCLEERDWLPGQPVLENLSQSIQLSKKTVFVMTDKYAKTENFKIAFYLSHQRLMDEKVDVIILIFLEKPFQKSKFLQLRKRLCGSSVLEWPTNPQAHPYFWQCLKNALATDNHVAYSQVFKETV
Description: as §1, §2, §3, §4
Namalwa cells were grown by incubation in culture medium overnight. Cells were harvested by centrifugation in a tabletop centrifuge (1200 RPM for 5 minutes), and then resuspended in phosphate buffered sucrose to a concentration of 1.3×10^7 cells/mL. […]
as §5, §6, §7, §8

SMILES | TLR6: fold increase of the IFN-α1-induced luciferase signal compared to a DMSO control (TLR6) [fold increase] | TLR7: fold increase of the IFN-α1-induced luciferase signal compared to a DMSO control (TLR7) [fold increase]
CCCCc1nc2c(N)nc3ccc(OCC(=O)N4CCOCC4)cc3c2n1C [IRM44, 2-[(4-amino-2-butyl-1-methyl-1H-imidazo[4,5-c]quinolin-8-yl)oxy]-1-morpholin-1-ylethanone] | 6.10 | 1.60
CCC(COCCCc1ccccc1)n1cnc2c(N)nc3ccccc3c21 (stereo not shown) [IRM45, 1-{1-[(3-phenylpropoxy)methyl]propyl}-1H-imidazo[4,5-c]quinolin-4-amine] | 5.56 | 1.87
Nc1nc2ccccc2c2c1ncn2CCCC(=O)c1ccccc1 [IRM46, 4-(4-amino-1H-imidazo[4,5-c]quinolin-1-yl)-1-phenylbutan-1-one] | 3.75 | 1.83
Cc1nc2c(N)nc3ccccc3c2n1CCOCC#Cc1ccccc1 [IRM47, 2-methyl-1-{2-[(3-phenylprop-2-ynyl)oxy]ethyl}-1H-imidazo[4,5-c]quinolin-4-amine] | 9.42 | 1.91
CCc1nc2c(N)nc3ccc(OCc4ccccc4)cc3c2n1CCCCNC(=O)c1ccccc1 [IRM48, N-{4-[4-amino-8-(benzyloxy)-2-ethyl-1H-imidazo[4,5-c]quinolin-1-yl]butyl}benzamide] | 4.56 | 1.62
COCCc1nc2c(N)nc3ccccc3c2n1CCOCCNC(=O)N1CCOCC1 [IRM49, N-(2-{2-[4-amino-2-(2-methoxyethyl)-1H-imidazo[4,5-c]quinolin-1-yl]ethoxy}ethyl)morpholine-4-carboxamide] | 10.92 | 1.95
CCc1nc2c(N)nc3ccccc3c2n1CCCCSC(C)C [IRM50] | 8.80 | 1.91
COCCc1nc2c(N)nc3ccccc3c2n1CCOCCNC(=O)c1ccc(C(=O)NCCOCCn2c(CCOC)nc3c(N)nc4ccccc4c32)cc1 [IRM51, N,N′-bis(2-{2-[4-amino-2-(2-methoxyethyl)-1H-imidazo[4,5-c]quinolin-1-yl]ethoxy}ethyl)terephthalamide] | 3.67 | 1.74
